From patent US10039761B2, “Co-crystals and pharmaceutical compositions comprising the same” (Vertex Pharmaceuticals Incorporated, priority 2013, dated 2018)

Tests used:
[1] = tested on: OD26749 primary NSCLC xenograft; experiment: OD26749 primary NSCLC xenograft efficacy with whole body IR; format: in vivo, nude mice
Protocol: The in vivo efficacies of Compounds (1) and (2) in combination with whole body IR were examined in the OD26749 primary NSCLC (non-small cell lung cancer) and the OE-19 GEJ cell line xenograft models. In these studies, Compounds (1) and (2) were formulated with 16% captisol/1% PVP/1% HPMC E5 pH2.
The in vivo efficacy of Compound (1) was evaluated in the primary OD26749 NSCLC subcutaneous xenograft model. […] […] Compound (1) was administered PO (tid at 0, 3, and 7 h) at 100 mg/kg alone or with a single 2 Gy dose of whole body IR at 3.25 h. […] Compound (1) in combination with 2 Gy whole body IR induced significant tumor regression (% T/Ti of −75; P<0.01) compared to IR alone.
The efficacies of Compounds (1) and (2) in combination with whole body IR (2 Gy) were evaluated in the OD26749 primary NSCLC xenograft model at a Compound ([…]) and Compound (2) dose levels of 50 mg/kg and 100 mg/kg PO bid (0 and 4 h). Two cycles of whole body IR (2 Gy) were given 15 min after the first compound administration (0.25 hour). Control animals were administered vehicle PO bid (0 and 4 h). […]
(§1) In Tables 14 and 15, for example, PO bid (0, 4 h) indicates Compound (2) is administered twice (bid) at time point 0 and then 4 hours after; IR (0.25 h) qdx3 indicates radiation is administered 15 minutes (0.25 h) after the administration of Compound (2) (0 h), and once a day for 3 days (qdx3); q7dx2 indicates once a week for two weeks; qod indicates every other day twice (e.g., Day 1 and Day 3); and paclitaxel q7dx3 (−0.25 h), carboplatin q7dx3 (−0.25 h) indicates administration of paclitaxel and carboplatin 15 minutes prior to the administration of Compound (2), followed by additional administration of Compound (2) after 4 hours after the first administration of Compound (2).

[2] = Blood exposure in OD26749 bridging study; format: in vivo, nude mice; details: nude, mouse, whole blood; 100 mg/kg PO bid (0 and 4 h) combination groups with 2 Gy whole body IR
[3] = tested on: LU-01-0030 primary NSCLC subcutaneous xenograft; experiment: LU-01-0030 primary NSCLC xenograft efficacy with focused IR; format: in vivo, mice
Protocol: (§2) The in vivo efficacies of Compounds (1) and (2) were evaluated alone and in combination with three consecutive days of focused IR in the primary LU-01-0030 NSCLC subcutaneous xenograft model. The dose-dependent anti-tumor activity of Compound (2) alone and in combination with focused beam IR was evaluated in the LU-01-0030 model.
as §1

[4] = Body weight in LU-01-0030 xenograft studies; format: in vivo, mice
Protocol: as §2, with “LU-01-0030 model. […] Mice in the combination treatment groups were monitored (without treatment) for up to 90 days as some mice had no evidence of tumor burden.” for “LU-01-0030 model.”

[5] = Body weight in OE-19 xenograft studies; format: in vivo
Protocol: The OE-19 cell line xenograft model was used to evaluate the efficacy of Compounds (1) and (2) alone and in combination with IR. Two cycles of treatment were administered (Day 0 and Day 7) as performed in the OD26749 model above.

[6] = tested on: ST-02-0004 primary GEJ tumor xenograft; experiment: ST-02-0004 primary GEJ tumor xenograft efficacy with focused IR; format: in vivo
Protocol: The in vivo activities of Compounds (1) and (2) were compared in combination with focused beam IR in a primary gastric cancer subcutaneous xenograft model. In the ST 02 0004 model, focused IR was administered on three consecutive days alone and in combination with Compound (1) or Compound (2).
The anti-tumor activity of Compound (2) in combination with focused-beam IR and the standard of care agents, paclitaxel and carboplatin, was also evaluated in the ST 02 0004 model. Treatment with paclitaxel, carboplatin, and IR was administered once per week for three weeks alone or in combination with Compound (2).
as §1

primary human tumors = experiment: Primary tumor chemosensitivity assay (TCA), Cell Titer-Glo, Bliss; format: cell-based
Protocol: Primary human tumors tested in vitro may provide a better indicator of efficacy of DNA PK inhibition than immortalized cancer cell lines due to their increased heterogeneity and closer proximity to the patient tumor from which they were derived. […] Dissociated cells from mouse-passaged tumors were cultured for 6 days after combination exposure and then assessed for viability using the Cell Titer-Glo assay. The Bliss Additivity statistical model was used to determine the degree of synergy, additivity, or antagonism of each combination treatment.

[7] = Body weight in OD26749 xenograft studies; format: in vivo, nude mice; details: bridging study; Compound (1) PO 100 mg/kg bid (0, 4 h), 2 Gy ([…]) qdx3; Day 1

AUC [2]: 65800 ng·h/mL
Compound: CNC(=O)c1ccnc2c([C@H](C)CNc3cc(-c4cnc(C)nc4)ncn3)cccc12 [Compound (1), (S)-N-methyl-8-(1-((2′-methyl-[4,5′-bipyrimidin]-6-yl)amino)propan-2-yl)quinoline-4-carboxamide]
time to tumor doubling (TTD) ([1]; Compound (1) single agent group, 100 mg/kg tid, twice one week apart): 2 to 3 days
% T/C (Day 29) ([1]; PO 50 mg/kg bid (0, 4 h), 2 Gy IR ([…]) q7dx2): 11.7%
% T/Ti (Day 29) ([1]; PO 100 mg/kg bid (0, 4 h), 2 Gy IR ([…]) q7dx2): −3.1%
% T/Ti (Day 16) ([1]; PO 100 mg/kg tid (0, 3, 7 h) q7dx2, 2 Gy q7dx2 (3.25 h) whole body IR): −75%
% T/C (Day 16) ([1]; PO 100 mg/kg tid (0, 3, 7 h) q7dx2, no IR): 74%
time to tumor doubling (TTD) ([1]; combination group: 100 mg/kg tid with 2 Gy whole body IR, given twice one week apart): 33.4 days
% T/Ti (Day 31) ([3]; PO 10 mg/kg bid (0, 4 h) qdx3, 2 Gy IR ([…])): −5.3%
% T/Ti (Day 24) ([3]; PO 10 mg/kg bid (0, 4 h) qdx3, 2 Gy IR qdx3 ([…])): −29.8%
% T/Ti (Day 24) ([3]; PO 25 mg/kg bid (0, 4 h) qdx3, 2 Gy IR qdx3 ([…])): −75.2%
% T/C (Day 31) ([3]; PO 50 mg/kg bid (0, 4 h) qdx1, 2 Gy IR ([…])): 7.2%
% T/Ti (Day 31) ([3]; PO 50 mg/kg bid (0, 4 h) qdx2, 2 Gy IR ([…])): −1.7%
% T/Ti (Day 31) ([3]; PO 50 mg/kg bid (0, 4 h) qdx3, 2 Gy IR ([…])): −14.1%
% T/Ti (Day 24) ([3]; PO 50 mg/kg bid (0, 4 h) qdx3, 2 Gy IR qdx3 ([…])): −87.6%
% T/Ti (Day 24) ([3]; PO 50 mg/kg bid (0, 4 h) qodx2, 2 Gy IR qdx3 ([…])): −79.9%
% T/C (Day 31) ([3]; PO 50 mg/kg qdx3, 2 Gy IR ([…])): 4.5%
% T/Ti (Day 30) ([3]; PO 100 mg/kg bid (0, 4 h) qdx3, 2 Gy IR ([…]) qdx3): −85.6%
% T/Ti (Day 30) ([3]; PO 100 mg/kg tid (0, 3, 7 h) qdx3, 2 Gy IR ([…]) qdx3): −90.6%
% T/Ti (Day 30) ([3]; PO 100 mg/kg tid (0, 3, 7 h) qdx5, 2 Gy IR ([…]) qdx3): −91.6%
% T/C (Day 30) ([3]; PO 100 mg/kg tid (0, 3, 7 h) qdx5, no IR): 79.1%
% T/Ti (Day 27) ([3]; first Day 27 study, PO 25 mg/kg bid (0, 4 h) qdx3, 2 Gy ([…]) IR qdx3): −80.3%
% T/Ti (Day 27) ([3]; first Day 27 study, PO 50 mg/kg bid (0, 4 h) qdx3, 2 Gy ([…]) IR qdx3): −87.8%
% T/Ti (Day 27) ([3]; first Day 27 study, PO 100 mg/kg bid (0, 4 h) qdx3, 2 Gy ([…]) IR qdx3): −90.1%
% T/Ti (Day 27) ([3]; first Day 27 study, PO 100 mg/kg qdx3, 2 Gy ([…]) IR qdx3): −76.5%
% T/Ti (Day 27) ([3]; second Day 27 study, PO 10 mg/kg bid (0, 4 h) qdx3, 2 Gy ([…]) IR qdx3): −80.3%
% T/Ti (Day 27) ([3]; second Day 27 study, PO 25 mg/kg bid (0, 4 h) qdx3, 2 Gy ([…]) IR qdx3): −87.8%
% T/Ti (Day 27) ([3]; second Day 27 study, PO 50 mg/kg bid (0, 4 h) qdx2, 2 Gy ([…]) IR qdx3): −90.1%
% T/Ti (Day 27) ([3]; second Day 27 study, PO 50 mg/kg bid (0, 4 h) qdx3, 2 Gy ([…]) IR qdx3): −76.5%
Max. body wt loss (%) ([4]; Day 24 study, PO 10 mg/kg bid (0, 4 h) qdx3, 2 Gy IR qdx3 ([…]), Day 4): −1.46%
Max. body wt loss (%) ([4]; Day 24 study, PO 25 mg/kg bid (0, 4 h) qdx3, 2 Gy IR qdx3 ([…]), Day 4): −2.03%
Max. body wt loss (%) ([4]; Day 24 study, PO 50 mg/kg bid (0, 4 h) qdx3, 2 Gy IR qdx3 ([…]), Day 4): −1.19%
Max. body wt loss (%) ([4]; Day 24 study, PO 50 mg/kg bid (0, 4 h) qodx2, 2 Gy IR qdx3 ([…]), Day 4): −1.59%
Max. body wt loss (%) ([4]; Day 30 study, PO 100 mg/kg bid (0, 4 h) qdx3, 2 Gy IR ([…]) qdx3, Day 4): −1.42%
Max. body wt loss (%) ([4]; Day 30 study, PO 100 mg/kg tid (0, 3, 7 h) qdx3, 2 Gy IR ([…]) qdx3, Day 4): −1.58%
Max. body wt loss (%) ([4]; Day 30 study, PO 100 mg/kg tid (0, 3, 7 h) qdx5, 2 Gy IR ([…]) qdx3, Day 4): −1.68%
Max. body wt loss (%) ([4]; Day 30 study, PO 100 mg/kg tid (0, 3, 7 h) qdx5, no IR, Day 6): −0.63%
Max. body wt loss (%) ([4]; Day 31 study, PO 10 mg/kg bid (0, 4 h) qdx3, 2 Gy IR ([…]), Day 3): −3.33%
Max. body wt loss (%) ([4]; Day 31 study, PO 50 mg/kg bid (0, 4 h) qdx1, 2 Gy IR ([…]), Day 1): −0.59%
Max. body wt loss (%) ([4]; Day 31 study, PO 50 mg/kg bid (0, 4 h) qdx2, 2 Gy IR ([…]), Day 1): −2.11%
Max. body wt loss (%) ([4]; Day 31 study, PO 50 mg/kg bid (0, 4 h) qdx3, 2 Gy IR ([…]), Day 3): −0.94%
Max. body wt loss (%) ([4]; Day 31 study, PO 50 mg/kg qdx3, 2 Gy IR ([…]), Day 1): −2.07%
Max. body wt loss (%) ([4]; first Day 27 study, PO 25 mg/kg bid (0, 4 h) qdx3, 2 Gy ([…]) IR qdx3, Day 2): −5.81%
Max. body wt loss (%) ([4]; first Day 27 study, PO 50 mg/kg bid (0, 4 h) qdx3, 2 Gy ([…]) IR qdx3, Day 3): −5.70%
Max. body wt loss (%) ([4]; first Day 27 study, PO 100 mg/kg bid (0, 4 h) qdx3, 2 Gy ([…]) IR qdx3, Day 3): −2.87%
Max. body wt loss (%) ([4]; first Day 27 study, PO 100 mg/kg qdx3, 2 Gy ([…]) IR qdx3, Day 2): −3.68%
Max. body wt loss (%) ([4]; second Day 27 study, PO 10 mg/kg bid (0, 4 h) qdx3, 2 Gy ([…]) IR qdx3, Day 2): −5.81%
Max. body wt loss (%) ([4]; second Day 27 study, PO 25 mg/kg bid (0, 4 h) qdx3, 2 Gy ([…]) IR qdx3, Day 3): −5.70%
Max. body wt loss (%) ([4]; second Day 27 study, PO 50 mg/kg bid (0, 4 h) qdx2, 2 Gy ([…]) IR qdx3, Day 3): −2.87%
Max. body wt loss (%) ([4]; second Day 27 study, PO 50 mg/kg bid (0, 4 h) qdx3, 2 Gy ([…]) IR qdx3, Day 2): −3.68%
Max. body weight loss (%) ([5]; PO 100 mg/kg bid (0, 4 h) qd7x2, 2 Gy IR qd7x2 ([…]), Day 1): −3.50%
Max. body weight loss (%) ([5]; PO 100 mg/kg bid (0, 4 h) qd7x 2, no IR, Day 8): −1.70%
% T/Ti (Day 34) ([6]; Compound (1) PO 100 mg/kg bid (0, 4 h) qdx3, 2 Gy IR ([…]) focused): −2.8%
% T/C (Day 34) ([6]; Compound (1) PO 100 mg/kg qdx3, no IR): 95.6%
tumors additive or synergistic / tumors tested (primary human tumors; Compound (1) (10× and 30× IC50) with bleomycin or radiation): 29/29
tumors with additivity / tumors tested (primary human tumors; Compound (1) with 5-FU): 5/5
tumors with strong synergy / tumors tested (primary human tumors; Compound (1) with bleomycin): 9/29
tumors with synergy or additivity / tumors tested (primary human tumors; Compound (1) with carboplatin): 5/5
tumors with antagonism (primary human tumors; Compound (1) with cisplatin): one tumor showed antagonism
tumors with synergy or additivity / tumors tested (primary human tumors; Compound (1) with cisplatin): 9/10
tumors with additivity / tumors tested (primary human tumors; Compound (1) with doxorubicin): 1/1
tumors with strong synergy / tumors tested (primary human tumors; Compound (1) with etoposide): 4/4
tumors with additivity / tumors tested (primary human tumors; Compound (1) with gemcitabine): 2/4
tumors with antagonism / tumors tested (primary human tumors; Compound (1) with gemcitabine): 2/4
tumors with additivity / tumors tested (primary human tumors; Compound (1) with paclitaxel): 1/5
tumors with antagonism / tumors tested (primary human tumors; Compound (1) with paclitaxel): 1/5
tumors with strong synergy / tumors tested (primary human tumors; Compound (1) with radiation): 3/8
Max. body wt loss (%) [7]: −2.40%
